Measurements published in patent publication US20190337924A1, “SUBSTITUTED HYDANTOIN AND THIOHYDANTOIN DERIVATIVES AS ANDROGEN RECEPTOR ANTAGONISTS” (Janssen Pharmaceutica NV, priority 2016, published 2019).
Where a name gives a salt, the structure may show the parent alone. Read-outs that look alike come from different tables or passages of the source.

Target: T1, F876L mutant Androgen Receptor (AR-F876L) (Homo sapiens, UniProt P10275, F877L)
T1 construct: expressed in transfected cells; host or cells: LNCaP
T1 sequence (P10275 1-920 F877L): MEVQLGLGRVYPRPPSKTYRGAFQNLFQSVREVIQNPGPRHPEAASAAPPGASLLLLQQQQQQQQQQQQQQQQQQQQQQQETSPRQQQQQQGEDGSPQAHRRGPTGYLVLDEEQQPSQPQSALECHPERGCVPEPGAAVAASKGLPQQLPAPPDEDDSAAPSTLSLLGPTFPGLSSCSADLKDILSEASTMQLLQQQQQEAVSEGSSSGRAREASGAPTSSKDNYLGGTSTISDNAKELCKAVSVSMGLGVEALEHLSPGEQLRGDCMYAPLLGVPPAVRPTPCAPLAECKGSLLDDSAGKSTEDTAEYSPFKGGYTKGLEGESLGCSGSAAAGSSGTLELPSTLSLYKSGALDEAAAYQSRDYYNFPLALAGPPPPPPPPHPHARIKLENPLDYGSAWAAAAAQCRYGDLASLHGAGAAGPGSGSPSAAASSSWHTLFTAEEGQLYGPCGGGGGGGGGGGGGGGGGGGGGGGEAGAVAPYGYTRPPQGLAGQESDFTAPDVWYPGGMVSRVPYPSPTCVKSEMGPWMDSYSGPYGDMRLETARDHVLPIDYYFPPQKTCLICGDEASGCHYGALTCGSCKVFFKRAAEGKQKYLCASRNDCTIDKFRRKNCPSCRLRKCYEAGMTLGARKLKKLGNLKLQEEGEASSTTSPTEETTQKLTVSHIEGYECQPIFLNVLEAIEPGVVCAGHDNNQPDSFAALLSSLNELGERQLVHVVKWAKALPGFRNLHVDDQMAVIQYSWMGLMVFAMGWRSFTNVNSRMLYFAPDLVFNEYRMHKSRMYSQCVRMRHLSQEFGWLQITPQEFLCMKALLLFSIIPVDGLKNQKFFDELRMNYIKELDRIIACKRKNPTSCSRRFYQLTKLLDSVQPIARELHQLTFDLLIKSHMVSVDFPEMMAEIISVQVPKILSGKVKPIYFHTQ
Assay: AR reporter assay, LNCaP-AR-F876L ANT (antagonist mode)
Type: cell-based
Details: for Emax: read-out: LNCaP-AR-F876L ANT MAX % Inh
Source text: LNCaP AR (cs) and LNCaP F876L luciferase cell lines were generated by transduction of each cell line (description of cell line generation Joseph J D, Lu N, Qian J, Sensintaffar J, Shao G, Brigham D, Moon M, Maneval E C, Chen I, Darimont B, Hager J H. A clinically relevant androgen receptor mutation confers resistance to second-generation antiandrogens enzalutamide and ARN-509. Cancer Discov 2013; 3:1020-1029) with an Androgen Response Element Firefly Luciferase lentiviral construct at an MOI (multiplicity of infection) of 50 following the manufacturer's instructions (Qiagen). A stable pooled-population cell line was generated using puromycin (Life Technologies) selection at 1:10,000 v/v. The protocol below was used for both cell lines and for testing of the compounds of Formula (I) of the present invention.
LNCaP cells were grown to about 80% confluence, media removed and cells rinsed in Hank's balanced salt solution prior to separation from the plate with 0.05% Trypsin EDTA. Cells were lifted and trypsin negated in complete CSS (charcoal stripped serum) culture media. CSS was maintained on cells for 24 h prior to assay, at which time 5,000 cells/[…] were seeded in Greiner 384 well White/White Tissue Culture Treated Plates and incubated for a further 1-2 hours at 37° C., 5% CO2, prior to addition of 10 μL of 4× Test Compounds (compounds described herein) or Assay Controls (all diluted in complete media containing 10% css). A further 10 μL of 4× R-1881 Agonist Challenge (antagonist assay) or Buffer (agonist assay) was then added (all diluted in complete media containing 10% css). Agonist challenge was at 400 pM for WT assay and 600 pM for F876L assay. Plates containing cells and compounds herein were incubated for a further 20-24 hours at 37° C., 5% CO2 before addition of 40 μL/well of Steady-Glo Luciferase Assay System Reagent (Promega#E2520). After 1 h, plates were read for luminescence on a BMG Pherastar.
Agonist challenge: R-1881 (Metribolone)—Agonist
Antagonist control (low control): 5-(5-(4-((1-Methylpiperidin-4-yl)oxy)phenyl)-8-oxo-6-thioxo-5,7-diazaspiro[3.4]octan-7-yl)-3-(trifluoromethyl)picolinonitrile (WO 2011/103202, EXAMPLE 19, Compound 129, CAS #1332390-06-3).
(1−(Sample RLU−Ave Low Control RLU[10 μM Antagonist Control])/(Ave High Control RLU [400 pM R-1881]−Ave Low Control RLU[10 μM Antagonist Control]))*100.
EC/IC50 calculations were achieved utilizing calculated RLU data and data fitting macros. Data were fit using least-squares methods to the following formula: […]
As used herein: • pIC50 is defined as −Log10(IC50 expressed in [Molar]). • pEC50 is defined as −Log10(EC50 expressed in [Molar]). • MAX % Inh is defined as the maximum % inhibition of R1881 control response observed for a compound over the tested concentration range. • MAX % Stim is defined as the maximum % stimulation (agonist response) observed for a compound over the tested concentration range. • LNCaP-AR-wt ANT refers to the reporter assay using LNCaP cells stably transfected with the Androgen Response Element Firefly Luciferase lentiviral construct and wild-type Androgen Receptor (AR-wt) in Antagonist mode. • LNCaP-AR-wt AG refers to the reporter assay using LNCaP cells stably transfected with the Androgen Response Element Firefly Luciferase lentiviral construct and wild-type Androgen Receptor (AR-wt) in Agonist mode. • LNCaP-AR-F876L ANT refers to the reporter assay using LNCaP cells stably transfected with the Androgen Response Element Firefly Luciferase lentiviral construct and F876L mutant Androgen Receptor (AR-F876L) in Antagonist mode. • LNCaP-AR-F876L AG refers to the reporter assay using LNCaP cells stably transfected with the Androgen Response Element Firefly Luciferase lentiviral construct and F876L mutant Androgen Receptor (AR-F876L) in Agonist mode.

[1] = antagonist mode, 600 pM R-1881 challenge, luciferase reporter, -Log10(IC50 in Molar), read-out: LNCaP-AR-F876L ANT pIC50 (converted)

SMILES	IC50 [1]	Emax	IC50
Cc1cc(N2C(=O)C3(CCC3)N(c3ccc(OC4CCN(C)CC4)nc3)C2=S)ccc1C#N [Compound 18, 2-Methyl-4-(5-(6-((1-methylpiperidin-4-yl)oxy)pyridin-3-yl)-8-oxo-6-thioxo-5,7-diazaspiro[3.4]octan-7-yl)benzonitrile]	282 nM	99.8%	
CN1CCC(Oc2ncc(N3C(=S)N(c4ccc(C#N)c(C(F)(F)F)c4)C(=O)C34CCC4)cn2)CC1 [Compound 16, 4-(5-(2-((1-Methylpiperidin-4-yl)oxy)pyrimidin-5-yl)-8-oxo-6-thioxo-5,7-diazaspiro[3.4]octan-7-yl)-2-(trifluoromethyl)benzonitrile]	166 nM	101%	
CN1CCC(Oc2ccc(N3C(=S)N(c4ccc(C#N)c(C(F)(F)F)c4)C(=O)C3(C)C)cn2)CC1 [Compound 4, 4-(4,4-Dimethyl-3-(6-((1-methylpiperidin-4-yl)oxy)pyridin-3-yl)-5-oxo-2-thioxoimidazolidin-1-yl)-2-(trifluoromethyl)benzonitrile hydrochloride]		102%	83.2 nM
N#Cc1ccc(N2C(=O)C3(CCC3)N(c3ccc(OC4CCNCC4)nc3)C2=S)cc1C(F)(F)F [Compound 13, 4-(8-Oxo-5-(6-(piperidin-4-yloxy)pyridin-3-yl)-6-thioxo-5,7-diazaspiro[3.4]octan-7-yl)-2-(trifluoromethyl)benzonitrile hydrochloride]		102%	57.5 nM
COc1cc(N2C(=O)C3(CCC3)N(c3ccc(OC4CCN(C)CC4)nc3)C2=S)ccc1C#N [Compound 20, 2-Methoxy-4-(5-(6-((1-methylpiperidin-4-yl)oxy)pyridin-3-yl)-8-oxo-6-thioxo-5,7-diazaspiro[3.4]octan-7-yl)benzonitrile]	145 nM	100%	
CN1CCC(Oc2ncc(N3C(=S)N(c4ccc(C#N)c(C(F)(F)F)c4)C(=O)C3(C)C)cn2)CC1 [Compound 6, 4-(4,4-Dimethyl-3-(2-((1-methylpiperidin-4-yl)oxy)pyrimidin-5-yl)-5-oxo-2-thioxoimidazolidin-1-yl)-2-(trifluoromethyl)benzonitrile]	135 nM	101%	
Cc1cc(N2C(=O)C3(CCC3)N(c3ccc(OC4CCN(C)CC4)cc3)C2=S)ccc1C#N [Compound 17, 2-Methyl-4-(5-(4-((1-methylpiperidin-4-yl)oxy)phenyl)-8-oxo-6-thioxo-5,7-diazaspiro[3.4]octan-7-yl)benzonitrile]	129 nM	101%	
